Consider 15 compounds from patent publication US8066979B1, “Attractants and repellents for the tropical root weevil Diaprepes Abbreviatus” (The United States of America as represented by the …, priority 2007, dated 2011).

The test system of assay [1] is D. abbreviatus male antenna. Briefly: Gas chromatography-linked electroantennogram detection (GC-EAD). Also noted: species or system Diaprepes abbreviatus. As to conditions: for antennal response (EAD) to constituents of citrus leaf headspace: SPME collection of citrus leaf volatiles, HP-5 column. An excerpt: Gas chromatography-linked electroantennogram detection (GC-EAD): The antenna of the insect was employed as a detector in tandem with a high resolution gas chromatography system (GC, Hewlett Packard, […]) as in Dickens (Dickens, J. C., Agr. Forest Entomol., 1: 47-54 (1999)) to locate biologically active constituents in volatile collections of plants and candidate chemicals. An adult weevil antenna was mounted between two glass capillaries. Silver wires were inserted into the ends of both glass capillaries. One glass capillary filled with 0.1 M NaCl served as recording electrode holding the tip of the flagellum. The other capillary filled with electrode gel (Spectra 360, Parker Laboratories, USA) served as ground electrode holding the proximal end of the pedicel. The antenna was bathed in a humidified air-stream (60% RH, 23±2° C.) delivered at 30 cm/s (Stimulus Controller CS-05, Syntech) via a stainless steel tube (5 mm internal diameter) whose outlet was approximately 0.5 cm from the preparation. The electrophysiological signal was amplified and conditioned prior to storage and analyses using a computer equipped with GC-EAD 2.3 software (Syntech). Samples were injected into the gas chromatograph with a septum-purged packed column injector and a flame ionization detector (FID) at 245° C. equipped with one of the following J&W Scientific capillary columns: stationary phase DB-[…], high polarity, film thickness 0.25 μm, length 30 m, i.d. 0.248 mm or HP-5, low polarity, film thickness 0.25 μm, length 30 m, i.d. 0.251 mm. After an initial temperature of 50° C., which was held for 2 min following injection, the temperature of the GC oven was increased at 15° C./min to 235° C., which was held for 8 min. The enantiomers of linalool present in the odor of citrus were separated for their identification using a β-cyclodextrin column (stationary phase HP-Chiral-20B, mid-polar polarity, film thickness 0.25 μm, length 30 m, i.d. 0.252 mm). Following the injection of the linalool enantiomers, the initial temperature of 50° C. was held for 2 min following injection and then increased at 3° C./min to 180° C. Carrier gas (He) flow was 50 cm/s. The effluent from the column was split using a Gerstel GraphPack-3D/2 splitter with a ratio of approximately 1 part to the FID and 4 parts to the electroantennogram detector (EAD). The latter was swept by the humidified air-stream to the electrophysiological preparation from a heated transfer line (Syntech) at 245° C. Volatiles that elicited responses on the antenna were identified by GC-MS (Dickens, J. C., et al., J. Exp. Biol., 4: 309-314 (2002)).

The subject of another assay is D. abbreviatus antennae. Briefly: Electroantennography (EAG) recordings. Also noted: species or system Diaprepes abbreviatus. As to conditions: for Mean EAG of the weevil antenna to the standard: diluted 1000-fold in hexane, mean±SE, n=30; for EAGs compared on the same antenna (enantiomer/racemate comparison): n=3, paired Wilcoxon test; for antenna sensory threshold: amount in stimulus cartridge; for EAG dose-response curve at the two higher stimulus loads: 10 μg and 100 μg. How it is done:
Electroantennography (EAG) recordings: For EAGs, an adult weevil antenna was mounted between two electrodes as described above for GC-EAD recordings. EAGs were analyzed using EAG 2.3 software (Syntech).
The following chemicals were serially diluted (ca. 0.01-100 μg) in hexane and tested separately on the antenna: cis-3-hexen-1-ol, trans-2-hexen-1-ol, (±)-linalool, (R)-(−)-linalool, (R)-(+)-citronellal, (S)-(−)-citronellal, cis-geraniol (nerol), trans-geraniol, cis-citral (neral), trans-citral (geranial), and carvacrol. Citral isomers were tested together in a blend. In order to compare activity of (±)-linalool and (R)-(−)-linalool ([…] was not available) as well as (R)-(+)-citronellal and (S)-(−)-citronellal, the enantiomers were tested alternatively on the same antenna of female and male weevils. Solvents and synthetic chemicals used in this investigation were ≧97% pure and acquired from Aldrich, Fisher Scientific, Fluka, and Sigma. Nomenclature of chemicals in the text follows that employed by NIST (http://webbook.nist.gov/chemistry/). One microliter of each solution was deposited on a small filter paper strip (0.8×2 cm; Whatman) that was inserted into a Pasteur pipette (cartridge) after solvent evaporation. The tip of the pipette was introduced via a hole in the wall of the stainless steel tube at 3 cm from the preparation. An air current (0.5 s duration, 50 cm/s airspeed; Air Velocity Meter 441S, Kurtz Instruments, USA) swept the chemicals evaporating from the filter paper from the cartridge (Stimulus Controller CS-05, Syntech) to the air-stream in which the antenna was bathed. Interstimulus time intervals of 2-3 min allowed for recovery of the antennal receptors. To allow for changes in sensitivity of an antenna preparation over time, stimulation with a standard compound preceded and followed each stimulus tested. A puff of 1 μg of (R)-(−)-linalool served as standard for EAGs with cis-3-hexen-1-ol and trans-2-hexen-1-ol, and 1 μg of cis-3-hexen-1-ol for EAGs with other compounds. A solvent control consisted of 1 μl of hexane on filter paper. EAGs were standardized by calculating the percent response of the experimental odorant relative to the mean of two responses to the standard preceding and following its presentation.
(§1) Statistical analysis: EAGs between (±)-linalool and (R)-(−)-linalool as well as between (R)-(+)-citronellal and (S)-(−)-citronellal on the same antenna were compared using the paired Wilcoxon test (Sokal, R. R., and F. J. Rohlf, Biometry, 3rd ed. Freeman, New York (1995)). Relative and absolute proportions of volatiles released by undamaged and damaged citrus leaves were also compared using the paired Wilcoxon test. Insect choices between test and control T-track olfactometer extremes were assessed for significant differences by the hypothesis on binomial proportions based on the standard normal approximation (Brase, C. H., and C. P. Brase, Understanding statistics, 1983, DC Health and Co, Lexington, Mass.). Other behaviors were analyzed using the paired Wilcoxon test and Chi-square test. Statistical analysis was performed using R (version 2.4.0, Vienna, Austria; Ihaka, R., and R. […], J. Comput. Graph. Stat., 5: 299-314 (1996)).

Another assay concerns D. abbreviatus adults. Briefly: Open T-track dual choice olfactometer behavioral experiments. The assay is classed as in vivo, Diaprepes abbreviatus. Also noted: unit not given here. The conditions noted are these: stereotyped behavior in T-track olfactometer.
Text: Behavioral experiments: An open T-track dual choice olfactometer described by Dickens (1999) was modified as follows. A container (diameter 11 cm, height 8 cm) with petrolatum on its border, to prevent the escape of insects that were placed in its interior, was placed at the bottom of the vertical “T”. As D. abbreviatus is reluctant to move for long periods (some times hours) after being manipulated, 20-30 insects of the same sex were placed in the container in order to increase chances of observing insects walking. When more than one insect started to climb the “T” tube, the experiment was discarded. Stereotyped behaviors performed by the weevil were recorded using a video camera (Digital Handycam DCR-TVR30).
The following compounds diluted in 25 μl of mineral oil placed on a 4.25 cm filter paper (No. 2, Whatman, England) in a odour-delivery bottle were tested separately in the olfactometer (doses indicated in parenthesis): (±)-linalool (25 μg), (R)-(+)-citronellal (25 μg), carvacrol (25 μg) and cis-3-hexen-1-ol (25 μg). The following blends were also tested: (±)-linalool (25 μg)+carvacrol (2.5 μg) and (±)-linalool (25 μg)+carvacrol (2.5 μg)+cis-3-hexen-1-ol (25 μg). An equal amount of the mineral oil solvent on filter paper was placed in the other side of the olfactometer. In order to observe the behaviour of insects to solvent alone, mineral oil was placed in both odour-delivery bottles. Responses of forty insects (20 females and 20 males) were recorded for each stimulus.
as §1

The mark [2] stands for this setting: at the injected amounts 1 ng and 10 ng.

As for `C=CC(C)(O)CCC=C(C)C` (centres unmarked) [linalool], the “antennal response (EAD) to constituents of citrus leaf headspace” value (from here on “antennal response (EAD) to constituents”) in assay [1] is listed as “EAGs were recorded”.
For the compound `CC(C)=CCCC(C)CC=O` (centres unmarked) [citronellal], the “antennal response (EAD) to constituents” value in assay [1] was “EAGs were recorded”.
For the compound `CC(C)=CCC/C(C)=C/C=O` [trans-citral, trans-citral (geranial)], the “antennal response (EAD) to constituents” value in assay [1] was “EAGs were recorded”. Also, the “antennal response (EAD) to injected synthetic compound” value in assay [1] (setting [2]) is reported as “no responses”.
In the case of `C=C[C@](C)(O)CCC=C(C)C` [(R)-(−)-linalool], the “Mean EAG of the weevil antenna to the standard” value in the assay on D. abbreviatus antennae is on record as 1.750±0.311 mV. Moreover, the “EAGs compared on the same antenna (enantiomer/racemate comparison)” value in the assay on D. abbreviatus antennae (females) and in the assay on D. abbreviatus antennae (males) was “did not differ significantly” in each case. Moreover, the antenna sensory threshold entry in the assay with D. abbreviatus antennae (females) and in the assay with D. abbreviatus antennae (males) was “around 0.1 μg” in each case.
On to `CC(C)=CCCC(C)=CC=O` [citral (cis and trans), citral], for which the antenna sensory threshold entry with D. abbreviatus antennae (females) and in the assay on D. abbreviatus antennae (males) was “around 0.1 μg” in each case.
As for `CC(C)=CCC[C@H](C)CC=O` [(S)-(−)-citronellal], the antenna sensory threshold result in the assay on D. abbreviatus antennae (males) is on record as “around 0.1 μg”.
Regarding `CC(C)=CCC/C(C)=C/CO` [trans-geraniol], the “increase in EAG response from 1 to 10 μg in the stimulus cartridge” value (“increase in EAG response from 1 to 10 μg” below) with D. abbreviatus antennae is recorded as “did not share such a pattern”. The “increase in magnitude of EAGs with increments in amount dosed in the stimulus cartridge” value is given as “EAG increase was not pronounced” with D. abbreviatus antennae (females) and “no significant increases” in the assay on D. abbreviatus antennae (males). For the same compound, in the assay with D. abbreviatus antennae (females), the antenna sensory threshold result is listed as “around 0.1 μg”. In addition, the “antennal response (EAD) to injected synthetic compound” value in assay [1] (setting [2]) was “no responses”.
With `CC(C)=CCC/C(C)=C\CO` [nerol, cis-geraniol (nerol)], in the assay with D. abbreviatus antennae, the “increase in EAG response from 1 to 10 μg” value is listed as “did not share such a pattern”. For the same compound, in assay [1], the “antennal response (EAD) to constituents” value was “EAGs were recorded”. In addition, the “antennal response (EAD) to injected synthetic compound” value in assay [1] (setting [2]) is recorded as “no responses”.
In the assay on D. abbreviatus adults (females), `Cc1ccc(C(C)C)cc1O` [carvacrol] showed a hesitation of 90, a reaching of 45 and a rectifying of 32.5. In the assay on D. abbreviatus adults (males), the hesitation is recorded as 95, the reaching worked out at 45 and the rectifying came to 47.5. For the same compound, the “increase in EAG response from 1 to 10 μg” value with D. abbreviatus antennae is “did not share such a pattern”. Besides, in the assay on D. abbreviatus antennae (females), the “EAG dose-response curve at the two higher stimulus loads” value was “reached saturation” and the antenna sensory threshold entry is reported as “around 0.1 μg”. The “increase in EAGs in response to serial dilutions” value in the assay with D. abbreviatus antennae (females, from 0.01 μg to 1 μg) was “more pronounced than for males”. Besides, the “EAG dose-response curve at the two higher stimulus loads” value in the assay on D. abbreviatus antennae (males) was “continued to increase”. For the same compound, the “antennal response (EAD) to injected synthetic compound” value in assay [1] (setting [2]) is “EAGs were recorded only for the two former chemicals”.
As to `CCC/C=C/CO` [trans-2-hexen-1-ol], the antenna sensory threshold entry in the assay on D. abbreviatus antennae (females) and in the assay with D. abbreviatus antennae (males) was “around 0.1 μg” each time. Further, the “antennal response (EAD) to injected synthetic compound” value in assay [1] (setting [2]) is “EAGs were recorded”.
In the assay on D. abbreviatus adults (females), `CC/C=C\CCO` [cis-3-hexen-1-ol] showed a hesitation of 75, a reaching of 12.5 and a rectifying of 10. In the assay on D. abbreviatus adults (males), this compound came in with a hesitation of 85, a reaching of 30 and a rectifying of 12.5. Further, in the assay on D. abbreviatus antennae, the “Mean EAG of the weevil antenna to the standard” value is on record as 1.605±0.200 mV. Further, in the assay with D. abbreviatus antennae (females), the antenna sensory threshold entry was “around 0.1 μg”. In the assay with D. abbreviatus antennae (males), the antenna sensory threshold result is reported as “around 0.1 μg”. Besides, in assay [1] (setting [2]), the “antennal response (EAD) to injected synthetic compound” value was “EAGs were recorded”.
Turning to `CC(C)=CCC/C(C)=C\C=O` [cis-citral, cis-citral (neral)], the “antennal response (EAD) to injected synthetic compound” value in assay [1] (setting [2]) is reported as “no responses”.
With `CC(C)=CCC[C@@H](C)CC=O` [(R)-(+)-citronellal], the figures for the hesitation in the assay on D. abbreviatus adults (females) and in the assay with D. abbreviatus adults (males) were 95 and 85, respectively. Also, the reaching with D. abbreviatus adults (females) came out at 62.5; in the assay with D. abbreviatus adults (males), 52.5. Moreover, the rectifying with D. abbreviatus adults (females) was 15; in the assay on D. abbreviatus adults (males) it was 5. For the same compound, the “EAGs compared on the same antenna (enantiomer/racemate comparison)” value in the assay on D. abbreviatus antennae (females) and in the assay with D. abbreviatus antennae (males) was “larger than for (S)-(−)-citronellal” throughout.
Consider `CC(C)=CCCC(C)CC=O` (racemic) [(±)citronellal], for which the “antennal response (EAD) to injected synthetic compound” value in assay [1] (1 ng injected, the lowest dose) is listed as “disappeared”; in assay [1] (10 ng injected) it was “persisted”.
Consider `C=CC(C)(O)CCC=C(C)C` (racemic) [(±)-linalool], for which, in the assay on D. abbreviatus adults (females), the hesitation is given as 80, the reaching came out at 30 and the rectifying was 22.5. Besides, in the assay with D. abbreviatus adults (males), the hesitation came out at 82.5, the reaching is reported as 52.5 and the rectifying is listed as 25. Also, in the assay on D. abbreviatus antennae (females), the “EAGs compared on the same antenna (enantiomer/racemate comparison)” value is listed as “did not differ significantly”. Moreover, in the assay with D. abbreviatus antennae (males), the “EAGs compared on the same antenna (enantiomer/racemate comparison)” value was “did not differ significantly”. The “antennal response (EAD) to injected synthetic compound” value in assay [1] (10 ng injected) is “persisted”.
